In ChEMBL document CHEMBL1125940 (Bioorg Med Chem Lett, 1991):
Positions of bridges follow the written chain, without caps; N, C: chain ends. Non-standard residues stand in square brackets, D forms with d. Residues, ends and D or L forms follow the SMILES beside them. Nle = CCCC[C@H](N)C(=O)O

How the values were obtained:
Oryctolagus cuniculus = species: Oryctolagus cuniculus; assay: Effective concentration required for stimulation of vascular contraction tested in vitro using carotid arteries of New Zealand white rabbits; type: functional
Endothelin-1 receptor [1] = target: T1, Endothelin-1 receptor (Rattus norvegicus, UniProt P26684); assay: Binding affinity towards Endothelin A receptor in A10 rat thoracic aorta smooth muscle cells using [125I]ET1 as radioligand (Exp 2)
T1 sequence (P26684 whole entry): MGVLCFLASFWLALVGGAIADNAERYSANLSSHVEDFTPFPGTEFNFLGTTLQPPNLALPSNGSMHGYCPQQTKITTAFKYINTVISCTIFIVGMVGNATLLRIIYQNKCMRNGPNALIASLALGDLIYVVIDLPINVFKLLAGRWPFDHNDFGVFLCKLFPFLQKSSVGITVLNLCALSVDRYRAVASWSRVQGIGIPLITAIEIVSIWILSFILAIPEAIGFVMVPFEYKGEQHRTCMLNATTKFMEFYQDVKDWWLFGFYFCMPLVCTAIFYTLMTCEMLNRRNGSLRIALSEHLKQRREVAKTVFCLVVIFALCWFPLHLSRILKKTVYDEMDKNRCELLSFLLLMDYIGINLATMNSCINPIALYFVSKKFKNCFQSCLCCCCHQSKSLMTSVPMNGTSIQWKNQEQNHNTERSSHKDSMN

Endothelin-1 receptor [2] = target: T1, Endothelin-1 receptor; assay: Binding affinity towards Endothelin A receptor in A10 rat thoracic aorta smooth muscle cells using [125I]ET1 as radioligand (Exp 1)
Endothelin-1 receptor [3] = target: T1, Endothelin-1 receptor; assay: Binding affinity towards Endothelin A receptor in A10 rat thoracic aorta smooth muscle cells using [125I]ET1 as radioligand

| Structure (SMILES) | EC50 (Oryctolagus cuniculus) | Kd (Endothelin-1 receptor [3]) | other results |
| --- | --- | --- | --- |
| CC[C@H](C)[C@H](NC(=O)[C@H](CC(=O)O)NC(=O)[C@H](CC(C)C)NC(=O)[C@H](Cc1c[nH]cn1)NC(=O)[C@@H]1CSSC[C@H](N)C(=O)N[C@@H](C)C(=O)N[C@H]2CSSC[C@H](NC(=O)[C@H](CCC(=O)O)NC(=O)[C@H](CCCCN)NC(=O)[C@H](CC(=O)O)NC(=O)[C@H](CCSC)NC(=O)[C@H](CC(C)C)NC(=O)[C@H](CO)NC(=O)[C@H](CO)NC2=O)C(=O)N[C@@H](C(C)C)C(=O)N[C@@H](Cc2ccc(O)cc2)C(=O)N[C@@H](Cc2ccccc2)C(=O)N1)C(=O)N[C@H](C(=O)N[C@@H](Cc1c[nH]c2ccccc12)C(=O)O)[C@@H](C)CC (H-CACSSLMDKECVYFCHLDIIW-OH; disulfide 1-15, 3-11) | 38 nM | – | – |
| CC[C@H](C)[C@H](NC(=O)[C@H](CC(=O)O)NC(=O)[C@H](CC(C)C)NC(=O)[C@H](Cc1cnc[nH]1)NC(=O)[C@@H]1CSSC[C@H](N)C(=O)N[C@@H](C)C(=O)N[C@H]2CSSC[C@H](NC(=O)[C@H](CCC(=O)O)NC(=O)[C@H](CCCCN)NC(=O)[C@H](CC(=O)O)NC(=O)[C@H](CCSC)NC(=O)[C@H](CC(C)C)NC(=O)[C@H](CO)NC(=O)[C@H](CO)NC2=O)C(=O)N[C@@H](C(C)C)C(=O)N[C@@H](Cc2ccc(O)cc2)C(=O)N[C@@H](Cc2ccccc2)C(=O)N1)C(=O)N[C@H](C(=O)N[C@@H](Cc1c[nH]c2ccccc12)C(=O)O)[C@@H](C)CC (H-CACSSLMDKECVYFCHLDIIW-OH; disulfide 1-15, 3-11) | – | – | Kd (Endothelin-1 receptor [1]): 409 nM; Kd (Endothelin-1 receptor [2]): 9.6 nM |
| CCCC[C@@H]1NC(=O)[C@H](CC(C)C)NC(=O)[C@H](CO)NC(=O)[C@H](CO)NC(=O)[C@H](C)NC(=O)[C@H](CO)NC(=O)[C@@H](N)CSSC[C@@H](C(=O)N[C@@H](Cc2cnc[nH]2)C(=O)N[C@@H](CC(C)C)C(=O)N[C@@H](CC(=O)O)C(=O)N[C@H](C(=O)N[C@H](C(=O)N[C@@H](Cc2c[nH]c3ccccc23)C(=O)O)[C@@H](C)CC)[C@@H](C)CC)NC(=O)[C@H](Cc2ccccc2)NC(=O)[C@H](Cc2ccc(O)cc2)NC(=O)[C@H](C(C)C)NC(=O)[C@H](C)NC(=O)[C@H](CCC(=O)O)NC(=O)[C@H](CCCCN)NC(=O)[C@H](CC(=O)O)NC1=O (H-CSASSL[Nle]DKEAVYFCHLDIIW-OH; disulfide 1-15) | – | – | Kd (Endothelin-1 receptor [1]): 16.6 nM; Kd (Endothelin-1 receptor [2]): 0.35 nM |
| CCCC[C@@H]1NC(=O)[C@H](CC(C)C)NC(=O)[C@H](CO)NC(=O)[C@H](CO)NC(=O)[C@H](C)NC(=O)[C@H](CO)NC(=O)[C@@H](N)CSSC[C@@H](C(=O)N[C@@H](Cc2c[nH]cn2)C(=O)N[C@@H](CC(C)C)C(=O)N[C@@H](CC(=O)O)C(=O)N[C@H](C(=O)N[C@H](C(=O)N[C@@H](Cc2c[nH]c3ccccc23)C(=O)O)[C@@H](C)CC)[C@@H](C)CC)NC(=O)[C@H](Cc2ccccc2)NC(=O)[C@H](Cc2ccc(O)cc2)NC(=O)[C@H](C(C)C)NC(=O)[C@H](C)NC(=O)[C@H](CCC(=O)O)NC(=O)[C@H](CCCCN)NC(=O)[C@H](CC(=O)O)NC1=O (H-CSASSL[Nle]DKEAVYFCHLDIIW-OH; disulfide 1-15) | 3.3 nM | – | – |
| CC[C@H](C)[C@H](NC(=O)[C@H](CC(=O)O)NC(=O)[C@H](CC(C)C)NC(=O)[C@H](Cc1c[nH]cn1)NC(=O)[C@@H]1CSSC[C@H](N)C(=O)N[C@@H](CO)C(=O)N[C@H]2CSSC[C@H](NC(=O)[C@H](CCC(=O)O)NC(=O)[C@H](CCCCN)NC(=O)[C@H](CC(=O)O)NC(=O)[C@H](C)NC(=O)[C@H](C)NC(=O)[C@H](C)NC(=O)[C@H](C)NC2=O)C(=O)N[C@@H](C(C)C)C(=O)N[C@@H](Cc2ccc(O)cc2)C(=O)N[C@@H](Cc2ccccc2)C(=O)N1)C(=O)N[C@H](C(=O)N[C@@H](Cc1c[nH]c2ccccc12)C(=O)O)[C@@H](C)CC (H-CSCAAAADKECVYFCHLDIIW-OH; disulfide 1-15, 3-11) | 36 nM | – | – |
| CC[C@H](C)[C@H](NC(=O)[C@H](CC(=O)O)NC(=O)[C@H](CC(C)C)NC(=O)[C@H](Cc1c[nH]cn1)NC(=O)[C@@H]1CSSC[C@H](N)C(=O)N[C@@H](CO)C(=O)N[C@H]2CSSC[C@H](NC(=O)[C@H](CCC(=O)O)NC(=O)[C@H](CCCCN)NC(=O)[C@H](CC(=O)O)NC(=O)[C@H](CCSC)NC(=O)[C@H](CC(C)C)NC(=O)[C@H](CO)NC(=O)[C@H](CO)NC2=O)C(=O)N[C@@H](C)C(=O)N[C@@H](Cc2ccc(O)cc2)C(=O)N[C@@H](Cc2ccccc2)C(=O)N1)C(=O)N[C@H](C(=O)N[C@@H](Cc1c[nH]c2ccccc12)C(=O)O)[C@@H](C)CC (H-CSCSSLMDKECAYFCHLDIIW-OH; disulfide 1-15, 3-11) | 130 nM | – | – |
| CC[C@H](C)[C@H](NC(=O)[C@H](CC(=O)O)NC(=O)[C@H](CC(C)C)NC(=O)[C@H](Cc1cnc[nH]1)NC(=O)[C@@H]1CSSC[C@H](N)C(=O)N[C@@H](CO)C(=O)N[C@H]2CSSC[C@H](NC(=O)[C@H](CCC(=O)O)NC(=O)[C@H](CCCCN)NC(=O)[C@H](CC(=O)O)NC(=O)[C@H](CCSC)NC(=O)[C@H](CC(C)C)NC(=O)[C@H](CO)NC(=O)[C@H](CO)NC2=O)C(=O)N[C@@H](C)C(=O)N[C@@H](Cc2ccc(O)cc2)C(=O)N[C@@H](Cc2ccccc2)C(=O)N1)C(=O)N[C@H](C(=O)N[C@@H](Cc1c[nH]c2ccccc12)C(=O)O)[C@@H](C)CC (H-CSCSSLMDKECAYFCHLDIIW-OH; disulfide 1-15, 3-11) | – | – | Kd (Endothelin-1 receptor [1]): 1390 nM; Kd (Endothelin-1 receptor [2]): 31 nM |
| CC[C@H](C)[C@H](NC(=O)[C@H](CC(=O)O)NC(=O)[C@H](CC(C)C)NC(=O)[C@H](C)NC(=O)[C@@H]1CSSC[C@H](N)C(=O)N[C@@H](CO)C(=O)N[C@H]2CSSC[C@H](NC(=O)[C@H](CCC(=O)O)NC(=O)[C@H](CCCCN)NC(=O)[C@H](CC(=O)O)NC(=O)[C@H](CCSC)NC(=O)[C@H](CC(C)C)NC(=O)[C@H](CO)NC(=O)[C@H](CO)NC2=O)C(=O)N[C@@H](C(C)C)C(=O)N[C@@H](Cc2ccc(O)cc2)C(=O)N[C@@H](Cc2ccccc2)C(=O)N1)C(=O)N[C@H](C(=O)N[C@@H](Cc1c[nH]c2ccccc12)C(=O)O)[C@@H](C)CC (H-CSCSSLMDKECVYFCALDIIW-OH; disulfide 1-15, 3-11) | 31 nM | 51.9 nM | – |
| CSCC[C@@H]1NC(=O)[C@H](CC(C)C)NC(=O)[C@H](CO)NC(=O)[C@H](CO)NC(=O)[C@@H]2CSSC[C@H](NC(=O)[C@H](CCC(=O)O)NC(=O)[C@H](CCCCN)NC(=O)[C@H](CC(=O)O)NC1=O)C(=O)N[C@@H](C(C)C)C(=O)N[C@@H](Cc1ccc(O)cc1)C(=O)N[C@@H](Cc1ccccc1)C(=O)N[C@H](C(=O)N[C@@H](Cc1cnc[nH]1)C(=O)N[C@@H](CC(C)C)C(=O)N[C@@H](CC(=O)O)C(=O)N[C@@H](C)C(=O)N[C@@H](C)C(=O)N[C@@H](Cc1c[nH]c3ccccc13)C(=O)O)CSSC[C@H](N)C(=O)N[C@@H](CO)C(=O)N2 (H-CSCSSLMDKECVYFCHLDAAW-OH; disulfide 1-15, 3-11) | – | 929 nM | – |
| CC[C@H](C)[C@H](NC(=O)[C@H](C)NC(=O)[C@H](CC(=O)O)NC(=O)[C@H](CC(C)C)NC(=O)[C@H](Cc1c[nH]cn1)NC(=O)[C@@H]1CSSC[C@H](N)C(=O)N[C@@H](CO)C(=O)N[C@H]2CSSC[C@H](NC(=O)[C@H](CCC(=O)O)NC(=O)[C@H](CCCCN)NC(=O)[C@H](CC(=O)O)NC(=O)[C@H](CCSC)NC(=O)[C@H](CC(C)C)NC(=O)[C@H](CO)NC(=O)[C@H](CO)NC2=O)C(=O)N[C@@H](C(C)C)C(=O)N[C@@H](Cc2ccc(O)cc2)C(=O)N[C@@H](Cc2ccccc2)C(=O)N1)C(=O)N[C@@H](Cc1c[nH]c2ccccc12)C(=O)O (H-CSCSSLMDKECVYFCHLDAIW-OH; disulfide 1-15, 3-11) | 182 nM | – | – |
| CC[C@H](C)[C@H](NC(=O)[C@H](CC(=O)O)NC(=O)[C@H](CC(C)C)NC(=O)[C@H](Cc1cnc[nH]1)NC(=O)[C@@H]1CSSC[C@H](N)C(=O)N[C@@H](CO)C(=O)N[C@H]2CSSC[C@H](NC(=O)[C@H](CCC(=O)O)NC(=O)[C@H](CCCCN)NC(=O)[C@H](CC(=O)O)NC(=O)[C@H](CCSC)NC(=O)[C@H](CC(C)C)NC(=O)[C@H](CO)NC(=O)[C@H](CO)NC2=O)C(=O)N[C@@H](C(C)C)C(=O)N[C@@H](Cc2ccc(O)cc2)C(=O)N[C@@H](Cc2ccccc2)C(=O)N1)C(=O)N[C@@H](C)C(=O)N[C@@H](Cc1c[nH]c2ccccc12)C(=O)O (H-CSCSSLMDKECVYFCHLDIAW-OH; disulfide 1-15, 3-11) | – | 2.11 nM | – |
| CC[C@H](C)[C@H](NC(=O)[C@H](CC(=O)O)NC(=O)[C@H](CC(C)C)NC(=O)[C@H](Cc1c[nH]cn1)NC(=O)[C@@H]1CSSC[C@H](N)C(=O)N[C@@H](CO)C(=O)N[C@H]2CSSC[C@H](NC(=O)[C@H](CCC(=O)O)NC(=O)[C@H](CCCCN)NC(=O)[C@H](CC(=O)O)NC(=O)[C@H](CCSC)NC(=O)[C@H](CC(C)C)NC(=O)[C@H](CO)NC(=O)[C@H](CO)NC2=O)C(=O)N[C@@H](C(C)C)C(=O)N[C@@H](Cc2ccc(O)cc2)C(=O)N[C@@H](Cc2ccccc2)C(=O)N1)C(=O)N[C@H](C(=O)N[C@@H](C)C(=O)O)[C@@H](C)CC (H-CSCSSLMDKECVYFCHLDIIA-OH; disulfide 1-15, 3-11) | – | > 20000 nM | – |
| CC[C@H](C)[C@H](NC(=O)[C@H](CC(=O)O)NC(=O)[C@H](CC(C)C)NC(=O)[C@H](Cc1c[nH]cn1)NC(=O)[C@@H]1CSSC[C@H](N)C(=O)N[C@@H](CO)C(=O)N[C@H]2CSSC[C@H](NC(=O)[C@H](CCC(=O)O)NC(=O)[C@H](CCCCN)NC(=O)[C@H](CC(=O)O)NC(=O)[C@H](CCSC)NC(=O)[C@H](CC(C)C)NC(=O)[C@H](CO)NC(=O)[C@H](CO)NC2=O)C(=O)N[C@@H](C(C)C)C(=O)N[C@@H](Cc2ccc(O)cc2)C(=O)N[C@@H](Cc2ccccc2)C(=O)N1)C(=O)N[C@H](C(=O)N[C@@H](Cc1c[nH]c2ccccc12)C(=O)O)[C@@H](C)CC [ENDOTHELIN] | 0.94 nM | – | – |
